Data set [1] has as its system Asns, Gpt2, eIF4Ebp1 mRNA. The data set can be described thus: Quantitative real-time PCR of AAR-associated genes in T cells. In kind it is cell-based, mouse. The note with it: 10 nM HF, within 4 hours of T cell activation. The protocol: FIG. 12C is a graph depicting the results of quantitative real-time PCR performed on cDNA generated from resting naïve T cells (TN) or T cells activated for 4 hours in the presence of 10 nM MAZ1310 or 10 nM HF. Asns, Gpt2 or eIF4Ebp1 mRNA expression was normalized to Hprt levels and data are presented as mean values±SD in duplicate samples.
Quantitative real-time PCR: T cells were activated as described above, collected at the indicated times and pellets were flash-frozen in liquid nitrogen. Total RNA was obtained by RNeasy (Quiagen, Valencia, Calif.) column purification per manufacturers instructions. RORγt expression was determined after reverse transcription using the message sensor kit (Ambion, Austin, Tex.) per manufacturers instructions and taqman primers and probe as described elsewhere (I. Ivanov, et al., Cell 126, 1121, 2006). Sybrgreen quantitative real-time PCR was performed on T cell RNA samples following reverse transcription via SuperScript II first-strand cDNA synthesis kit (Invitrogen, Carlsbad, Calif.). All PCR data was collected on an iCycler thermal cycler (Biorad, Hercules, Calif.). Primer sequences used for detecting stress response genes are listed below.

A further data set concerns STAT3 phosphorylation. The data set can be described thus: Kinetics of STAT3 phosphorylation in developing Th17 cells. In kind it is cell-based, mouse. The protocol: FIG. 11A is a series of graphs depicting representative histograms displaying the kinetics of STAT3 phosphorylation in developing Th17 cells treated with or without HF. Resting naïve T cells (shaded peak), T cells activated in the presence of TGFβ plus IL-6 (TGFβ/IL-6) treated with 10 nM MAZ1310, TGFβ/IL-6-activated T cells treated with 5 nM HF, TGFβ/IL-6-activated T cells treated with 10 nM HF. T cells were fixed at the indicated times and intracellular phospho-STAT3 staining was performed.
FACS analyses and sorting: All cell surface staining was performed in FACS buffer (PBS/2% FCS/0.1% NaN3) and antibodies were incubated with cells on ice for 20-30 minutes. Cells were washed with FACS buffer and fixed with FACS buffer plus 1% paraformaldehyde prior to data acquisition. For phospho-STAT3 intracellular staining, stimulated T cells cultured with or without TGF plus IL-6 for the indicated times were harvested on ice and fixed in PBS plus 2% paraformaldehyde for 10 minutes at 37° C. Fixed cells were washed twice with staining buffer (PBS/1% BSA/0.1% NaN3) and then permeabilized with perm buffer III (BD Pharmingen) on ice for 30 minutes. […] All FACS data was acquired on a FACSCalibur flow cytometer (BD Pharmingen) and analyzed using FlowJo software (Treestar, Inc., Ashland, Oreg.). […]

The next data set deals with TSK mouse. The note with it: 1 μg HF/mouse IP daily (McGaha et al.); cited from earlier work.
The subject of data set [2] is amino acid response (AAR) pathway: eIF2α, ATF4. The data set can be described thus: eIF2α phosphorylation and ATF4 protein levels in T cells (immunoblot). The format is cell-based, mouse. The protocol:
Whole cell lysates were prepared 4 hours-post TCR activation and immunoblotting was performed with the indicated antibodies. ATF4 protein is indicated by arrowhead. NS-non-specific band.
FIG. 12E is an illustration depicting immunoblot analysis of purified CD4^+ CD25^− T cells activated through the TCR for the indicated times without exogenous cytokines in the presence of either 10 nM MAZ1310 or 10 nM HF as indicated. Whole cells lysates were prepared during the timecourse and immunoblotting was performed.
Western blotting: Whole cell lysates were generated from T cells activated for the indicated times. For STAT3 and Smad2/3 western blots cells were harvested, washed in PBS and lysed in 50 mM Tris, pH 7.4, 0.1% SDS, 1% Triton-X100, 140 mM NaCl, 1 mM EDTA, 1 mM EGTA supplemented with protease inhibitors tablets (Roche-Germany), 1 mM NaF and 1 mM Na3VO4. For eIF2α and ATF4 western blots, cells were harvested as above and lysed in 50 mM Tris, pH 7.4, 2% SDS, 20% glycerol and 2 mM EDTA supplemented with protease and phosphatase inhibitors as above. All lysates were cleared via centrifugation and 15-30 μg of protein was resolved by SDS-PAGE. Protein was transferred to nitrocellulose membranes, blocked and blotted using specific antibodies. Antibodies used for western blot analysis were anti-phospho-Smad2, anti-STAT3 (pY705), anti-STAT3, anti-eIF2α^pS51, anti-eIF2α, anti-GCN2^pT898, anti-GCN2 (all from cell signaling technology, Danvers, Mass.). Anti-ATF4/CREB2 and anti-β-actin were purchased from Santa Cruz biotechnology (Santa Cruz, Calif.). HRP-conjugated secondary antibodies were all purchased from Sigma, with the exception of HRP-conjugated anti-armenian hamster antibody (Jackson Immunoresearch—West Grove, Pa.).
To address directly whether HF activates the AAR pathway, eIF2a phosphorylation and ATF4 protein levels in HF-treated T cells were examined. HF induced detectable eIF2α phosphorylation at 2.5 nM, and this effect plateaued at 5-10 nM HF (FIG. 12D). […] AAR activation was a general consequence of HF treatment: HF induced eIF2α phosphorylation not only in T cells activated in Th17-priming conditions, but also in resting naïve T cells and T cells activated in ThN, Th1, Th2 and iTreg polarizing conditions (FIG. 12F). […] (Rathmell, J. C., Elstrom, R. L., Cinalli, R. M. & Thompson, C. B. Activated Akt promotes increased resting T cell size, CD28-independent T cell growth, and development of autoimmunity and lymphoma. Eur J Immunol 33, 2223-32 (2003)). Thus, the rapid activation of the AAR pathway by HF underlies both its selective inhibition of Th17 differentiation and its effects on fibroblasts. (Pines, M. & Nagler, A. Halofuginone: a novel antifibrotic therapy. Gen Pharmacol 30, 445-50 (1998)).

Regarding `O=C(CC1NCCCC1O)Cn1cnc2cc(Br)c(Cl)cc2c1=O` (racemic) [HF, 7-bromo-6-chloro-3-[3-(3-hydroxy-2-piperidinyl)-2-oxopropyl]-4(3H)-quinazolinone], the “Asns, Gpt2, eIF4Ebp1 mRNA (qPCR), in words” value in data set [1] was “induced”. In addition, in the data set on STAT3 phosphorylation (5 or 10 nM HF, TGFβ plus IL-6), the “time post activation at which maintenance of STAT3 phosphorylation begins to decrease” value is recorded as “around 12 hours”. In the data set on STAT3 phosphorylation (first 6 hours of Th17 differentiation), the “effect on early STAT3 activation, in words” value was “did not interfere with STAT3 activation during the first 6 hours”. In the data set on TSK mouse, the “skin thickness in TSK model, in words” value is reported as “reduced skin thickness of a TSK mouse to that of a normal mouse” and the “toxic effects in TSK model, in words” value is “no toxic effects”. For the same compound, in data set [2] (10 nM HF), the “time at which eIF2α phosphorylation reached maximum levels” value is not above 2 h and the “time until which ATF4 protein continued to accumulate” value was determined as 4 h. Moreover, in data set [2] (4 hours post TCR activation), the “concentration at which eIF2α phosphorylation plateaued” value lay within 5 to 10 nM, the “concentration giving highest ATF4 expression levels” value was 5 to 10 nM, the “concentration inducing detectable eIF2α phosphorylation” value is given as 2.5 nM and the “higher concentrations at which ATF4 expression levels were reduced” value was in the range of 20 to 40 nM.

Source of the values: US20110212100A1, “METHODS FOR MODULATING DEVELOPMENT AND EXPANSION OF IL-17 EXPRESSING CELLS” (priority 2007, published 2011).
